Source: the supplement of paper PMC10307832

Key:
Experiment in all cases: relative viability (nuclei count vs DMSO), 5 days (fraction); higher = more cells survive
[1] = compound: O=c1ncccn1[C@@H]1O[C@H](CO)[C@@H](O)[C@H]1O [Zebularine] + CC(C)C[C@H](NC(=O)[C@H](Cc1ccccc1)NC(=O)c1cnccn1)B(O)O [Bortezomib] (partner 0.002 µM)
How it was run: (§1)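 Relative viability was taken as the ratio of nuclei in treated wells to nuclei in vehicle wells. Lung cancer cell lines in 1536-well plates received compounds by pin tool one day after seeding, either one drug alone or a fixed anchor-drug dose plus five library-drug doses (not always all listed) in √10 steps. Nuclei were counted on 4× images after 5 days of treatment, and values are medians of duplicate plates.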

[2] = compound: CC(C)CCN1c2nc(Nc3cc(F)c(O)c(F)c3)ncc2N(C)C(=O)C1C [BI-D1870] + Cc1cc(Nc2cc(N3CCN(C)CC3)nc(Sc3ccc(NC(=O)C4CC4)cc3)n2)n[nH]1 [Tozasertib] (partner 0.1 µM)
How it was run: as §1

[3] = compound: O=c1ncccn1[C@@H]1O[C@H](CO)[C@@H](O)[C@H]1O [Zebularine] + COc1cc2c(Oc3ccc(NC(=O)C4(C(=O)Nc5ccc(F)cc5)CC4)cc3F)ccnc2cc1OCCCN1CCOCC1 [Foretinib] (partner 0.25 µM)
How it was run: as §1

[4] = compound: O=c1ncccn1[C@@H]1O[C@H](CO)[C@@H](O)[C@H]1O [Zebularine] + C[C@]1(O)C[C@@H](c2nc(-c3ccc4ccc(-c5ccccc5)nc4c3)c3c(N)nccn32)C1 [Linsitinib] (partner 1 µM)
How it was run: as §1

Cell Line	relative viability ([1]; first compound 1 µM)	relative viability ([1]; first compound 3.162 µM)	relative viability ([1]; first compound 10 µM)	relative viability ([1]; first compound 31.62 µM)	relative viability ([1]; first compound 100 µM)	relative viability ([2]; first compound 0.04 µM)	relative viability ([2]; first compound 0.1265 µM)	relative viability ([2]; first compound 0.4 µM)	relative viability ([2]; first compound 1.265 µM)	relative viability ([2]; first compound 4 µM)	relative viability ([3]; first compound 1 µM)	relative viability ([3]; first compound 3.162 µM)	relative viability ([3]; first compound 10 µM)	relative viability ([3]; first compound 31.62 µM)	relative viability ([3]; first compound 100 µM)	relative viability ([4]; first compound 1 µM)	relative viability ([4]; first compound 3.162 µM)	relative viability ([4]; first compound 10 µM)	relative viability ([4]; first compound 31.62 µM)	relative viability ([4]; first compound 100 µM)
HCC-78	0.497	0.512	0.407	0.42	0.355	0.455	0.355	0.392	0.39	0.293	0.523	0.547	0.53	0.584	0.477	0.53	0.562	0.379	0.43	0.229
HCC-366	1.05	0.976	0.292	0.685	0.116	0.0892	0.057	0.055	0.0986	0.0506	0.935	0.922	0.797	0.65	0.163	0.764	0.75	0.428	0.355	0.0776
HCC-827	1.12	1.06	0.875	0.773	0.506	0.421	0.401	0.377	0.396	0.369	1.15	1.07	0.718	0.714	0.317	0.974	1.01	0.941	0.757	0.361
HOP-62	0.593	0.741	0.547	0.201	0.143	0.371	0.371	0.407	0.39	0.301	1.28	1.15	0.335	0.252	0.186	1.05	0.848	0.557	0.188	0.118
IA-LM	0.63	0.892	0.617	1.03	0.672	–	–	–	–	–	1.1	1.14	–	1.34	0.877	0.723	0.794	–	0.878	0.503
LC-2-ad	1.09	0.76	0.521	0.605	0.148	0.561	0.479	0.443	0.367	0.373	0.868	0.828	0.717	0.674	0.454	0.924	0.844	0.591	0.496	0.157
LK-2	–	–	–	–	–	0.146	0.175	0.172	0.175	0.148	1.33	1.08	0.529	0.756	0.403	0.52	0.564	0.371	0.35	0.218
NCI-H358	–	–	–	–	–	0.124	0.0956	0.118	0.127	0.113	0.723	0.602	0.476	0.391	0.184	0.796	0.822	0.469	0.516	0.26
NCI-H522	–	–	–	–	–	0.559	0.648	0.583	0.505	0.533	–	–	–	–	–	–	–	–	–	–
NCI-H1299	1.01	1.06	0.969	1.08	0.747	–	–	–	–	–	1.12	1.05	0.947	1.11	0.549	1.09	0.993	0.984	1.07	0.535
NCI-H1395	–	–	–	–	–	0.818	0.685	0.718	0.72	0.721	0.852	0.961	0.772	0.608	0.445	1.03	1.09	0.869	0.653	0.533
NCI-H1563	0.826	1.02	0.874	1.04	0.928	–	–	–	–	–	0.915	0.952	0.922	0.991	0.898	1.21	1.17	1.17	1.22	1.17
NCI-H1648	–	–	–	–	–	0.479	0.48	0.371	0.566	0.412	–	–	–	–	–	–	–	–	–	–
NCI-H1650	0.226	0.191	–	0.2	0.199	0.53	0.347	0.401	0.323	0.252	1.26	1.02	0.905	1.46	1.07	–	–	–	–	–
NCI-H1703	0.273	0.302	0.296	0.512	0.411	–	–	–	–	–	0.338	0.285	–	0.35	0.389	0.633	0.512	0.644	0.941	0.525
NCI-H1792	0.989	0.932	0.369	0.382	0.359	–	–	–	–	–	–	–	–	–	–	0.571	0.441	0.541	0.267	0.296
NCI-H1793	–	–	–	–	–	0.376	0.246	0.207	0.275	0.226	0.685	0.84	–	0.573	0.207	0.882	0.978	0.365	0.464	0.197
NCI-H1944	–	–	–	–	–	0.293	0.233	0.25	0.262	0.235	0.966	0.859	0.858	0.81	0.649	1.34	1.14	0.979	1.19	0.784
NCI-H2170	–	–	–	–	–	0.701	0.715	0.713	0.648	0.574	0.983	1.02	0.909	0.98	0.611	–	–	–	–	–
NCI-H2342	–	–	–	–	–	0.491	0.374	0.538	0.481	0.515	1.33	1.07	0.802	0.953	0.748	–	–	–	–	–
SK-MES-1	–	–	–	–	–	1.06	0.82	0.766	0.607	0.22	1.12	0.828	0.794	0.742	0.337	1.15	1.14	0.78	0.567	0.299
SW 900	–	–	–	–	–	0.472	0.542	0.463	0.408	0.284	1.28	0.633	0.545	0.762	0.498	–	–	–	–	–
